Measurements: ChEMBL document CHEMBL5331048, “Recent progress toward developing axial chirality bioactive compounds” (Eur J Med Chem, 2022)
In brackets after ≈: the same amount, converted by molar mass. Values belong to the compound of their own block, whether it stands above or below them.

Experiments:
[1] = test system: Caco-2; assay: Anticancer activity against human Caco-2 cells assessed as cell growth inhibition measured after 72 hrs by MTT assay; type: functional, cell-based; conditions: Caco-2, 72 h
[2] = test system: HCT-116; assay: Anticancer activity against human HCT-116 cells assessed as cell growth inhibition; type: functional, cell-based
[3] = test system: Staphylococcus aureus; assay: Antibacterial activity against methicillin-resistant Staphylococcus aureus assessed as bacterial growth inhibition; type: functional
[4] = test system: Staphylococcus aureus; assay: Antibacterial activity against Staphylococcus aureus ATCC 25923 assessed as bacterial growth inhibition; type: functional, organism-based
[5] = test system: Bacillus subtilis; assay: Antibacterial activity against Bacillus subtilis ATCC 6633 assessed as bacterial growth inhibition; type: functional, organism-based
[6] = test system: Streptococcus iniae; assay: Antibacterial activity against Streptococcus iniae FP 5228 assessed as bacterial growth inhibition; type: functional
[7] = Anticancer activity against human QGP-1 cells assessed as cell growth inhibition; type: functional, cell-based
[8] = test system: A-375; assay: Anticancer activity against human A-375 cells assessed as cell growth inhibition measured after 24 hrs by MTT assay; type: functional, cell-based; conditions: A-375, 24 h
[9] = test system: Bacillus thuringiensis; assay: Antibacterial activity against Bacillus thuringiensis SCSIO BT01 assessed as bacterial growth inhibition; type: functional
[10] = test system: Staphylococcus aureus; assay: Antibacterial activity against Staphylococcus aureus ATCC 29213 assessed as bacterial growth inhibition; type: functional
[11] = test system: Escherichia coli; assay: Antibacterial activity against Escherichia coli ATCC 25922 assessed as bacterial growth inhibition; type: functional
[12] = test system: Bacillus subtilis; assay: Antibacterial activity against Bacillus subtilis SCSIO BS01 assessed as bacterial growth inhibition; type: functional
[13] = Anticancer activity against human Leucocyte assessed as cell break at 2 x 10^-9M measured after 12 hrs; type: functional; conditions: dose 2 10^-9M
[14] = test system: HGC-27; assay: Anticancer activity against human HGC-27 cells assessed as cell growth inhibition measured after 24 hrs by CCK-8 assay; type: functional, cell-based; conditions: HGC-27, 24 h
[15] = test system: Streptococcus iniae; assay: Potency index, ratio of oxytetracycline MIC to test compound MIC for antibacterial activity against Streptococcus iniae FP 5228; type: functional
[16] = test system: Plasmodium berghei; assay: Antimalarial activity against Plasmodium berghei assessed as reduction in parasite growth; type: functional, organism-based
[17] = test system: Plasmodium berghei; assay: Antimalarial activity against Plasmodium berghei ANKA assessed as reduction in parasite growth measured after 24 hrs by 3[H]-hypoxanthine incorporation assay; type: functional, organism-based
[18] = test system: Plasmodium falciparum; assay: Antimalarial activity against Plasmodium falciparum NF 54 clone A1A9 assessed as reduction in parasite growth measured after 24 hrs by 3[H]-hypoxanthine incorporation assay; type: functional, organism-based; conditions: NF 54 clone A1A9, 24 h

IC50 [1]: 76 µM
Structure (SMILES): O=C1N[C@@H]2[C@H]3NC(=O)[C@@H]4Cc5cc6ccccc6n5-n5cc(c6ccccc65)C[C@@H]1N[C@H]2[C@@H]3N4

Structure (SMILES): O=C(c1ccccc1O)c1[nH]c(Cl)c(Cl)c1-n1c(C(=O)c2ccccc2O)cc(Cl)c1Cl
IC50 [2]: 8.8 µM
MIC90 [3]: 0.61 µM (≈ 0.311 µg/mL)

Structure (SMILES): COC(=O)[C@@]12Oc3cc(C)c(-c4c(C)cc5c(c4O)C(=O)C4C(O)=CC[C@@H](O)[C@]4(C(=O)OC)O5)c(O)c3C(=O)C1=C(O)CC[C@H]2O (stereo in doubt; 5)
IC50 [4]: 18 µM
IC50 [5]: 0.7 µM

MIC [6]: 40 µg/mL (≈ 86.9 µM)
Structure (SMILES): CN(C)[C@@H]1C(O)=C(C(N)=O)C(=O)[C@@]2(O)C(O)=C3C(=O)c4c(O)cccc4[C@@](C)(O)[C@H]3[C@H](O)[C@@H]12 [OXYTETRACYCLINE]

Structure (SMILES): O=C(c1ccccc1O)c1[nH]c(Cl)c(Cl)c1-n1c(Cl)c(Cl)c(Br)c1C(=O)c1ccccc1O
IC50 [2]: 9 µM
MIC90 [3]: 1.1 µM (≈ 0.648 µg/mL)

Structure (SMILES): COC(=O)c1cc(-c2ccccc2)n(-n2c(-c3ccc4c(c3)OCO4)cc(C(=O)OC)c2C)c1C
IC50 [7]: 18.7 µg/mL (≈ 39.6 µM)

Structure (SMILES): COC(=O)c1cc(-c2cccc(OC)c2)n(-n2c(-c3ccc4ccccc4c3)cc(C(=O)OC)c2C)c1C
IC50 [7]: 18.7 µg/mL (≈ 36.8 µM)

IC50 [8]: 2.57 µM
Structure (SMILES): COc1ccc2ccc(O)c(-c3c(Br)c(C4CC4)nn3P(=O)(c3ccccc3)c3ccccc3)c2c1

MIC ([9]; Bacillus thuringiensis, SCSIO BT01, read-out: MIC): 4 µg/mL (≈ 5.52 µM)
MIC ([10]; Staphylococcus aureus, ATCC 29213, read-out: MIC): 8 µg/mL (≈ 11 µM)
MIC ([11]; Escherichia coli, ATCC 25922, read-out: MIC): 8 µg/mL (≈ 11 µM)
MIC ([12]; Bacillus subtilis, SCSIO BS01, read-out: MIC): 16 µg/mL (≈ 22.1 µM)
Structure (SMILES): C[C@@]1(C(=O)O)[C@@H](O)CC[C@]2(C)c3cc4c5ccccc5n(-n5c6ccccc6c6cc7c(cc65)CC[C@H]5[C@](C)(C(=O)O)[C@@H](O)CC[C@]75C)c4cc3CC[C@@H]12 (stereo in doubt; 66)

Structure (SMILES): COC(=O)c1cc(-c2ccc(F)cc2)n(-n2c(C(=O)OC)cc3ccccc32)c1C
IC50 [7]: 18.7 µg/mL (≈ 46.1 µM)

MIC [9]: 8 µg/mL (≈ 11 µM)
MIC [10]: 16 µg/mL (≈ 22.1 µM)
MIC [11]: 8 µg/mL (≈ 11 µM)
MIC [12]: 16 µg/mL (≈ 22.1 µM)
Structure (SMILES): C[C@@]1(C(=O)O)[C@@H](O)CC[C@]2(C)c3cc4c5ccccc5n(-n5c6ccccc6c6cc7c(cc65)CC[C@H]5[C@](C)(C(=O)O)[C@@H](O)CC[C@]75C)c4cc3CC[C@@H]12 (stereo in doubt; 67)

Structure (SMILES): COC1=C(N)C(=O)c2nc(-c3nc(C(=O)O)c(C)c(-c4ccc(OC)c(OC)c4O)c3N)ccc2C1=O [STREPTONIGRIN]
Activity [13]: 2.82

Structure (SMILES): c1ccc(C(OCCN2CCCCC2)c2ccccc2)cc1 [PERASTINE]
IC50 [14]: 14.4 µM

Structure (SMILES): COC(=O)C[C@@H]1Cc2cc3c(-c4c(OC)cc(O)c5c(O)c6c(cc45)C[C@@H](CC(=O)OC)OC6=O)c(OC)cc(O)c3c(O)c2C(=O)O1
Ratio [15]: 100
MIC [6]: 0.31 µg/mL (≈ 0.468 µM)

Structure (SMILES): COc1cc(C)cc2c(-c3c(O)cc(O)c4c3C[C@@H](C)N[C@@H]4C)ccc(O)c12 [KORUPENSAMINE A]
IC50 [16]: 0.56 µg/mL (≈ 1.48 µM)

Structure (SMILES): COc1cc(C)c(-c2ccc(O)c3c2C[C@@H](C)N[C@@H]3C)c2cccc(O)c12 [DIONCOPHYLLINE C]
IC50 [17]: 0.015 µg/mL (≈ 0.0413 µM)
IC50 [18]: 0.014 µg/mL (≈ 0.0385 µM)

Structure (SMILES): COC(=O)[C@@]12Oc3cc(C)c(-c4c(C)cc5c(c4O)C(=O)C4C(O)=CC[C@@H](O)[C@]4(C(=O)OC)O5)c(O)c3C(=O)C1=C(O)CC[C@H]2O (stereo in doubt; 4)
IC50 [4]: 6 µM
IC50 [5]: 2.1 µM
